Like-named read-outs stand apart in the source and are kept apart here.
What was measured:
JMJD6^FL [1] = details: read-out: 2OG Km^app; reported for JMJD6^FL; ref Mantri et al. ([23]); cited from earlier work
JMJD6^Δ363–403 [2] = target: T1, JMJD6^Δ363–403 (Homo sapiens, UniProt Q6NYC1); details: read-out: 2OG Km^app; standard hydroxylation assay conditions, 2OG varied 0–150 μM, 37 °C, HEPES-KOH pH 8.0; mean ± S.D. (n = 3)
Method: (§1) JMJD6 activity was assayed using a reaction mixture of 10 μM purified JMJD6 and 100 μM substrate peptide, at 37 °C in 50 mM HEPES-KOH, pH 8.0, buffer supplemented with 100 μM (NH4)2Fe(SO4)2·6H2O (Sigma), 400 μM L-sodium ascorbate (Sigma), and 500 μM disodium 2OG (Fluka). After 30 min, the reaction was quenched by an equal volume of 1% (v/v) aqueous formic acid (Sigma). In a 96-well MALDI plate (Waters), 0.8 μl of CHCA (α-cyano-4-hydroxycinnamic acid, Aldrich) ([…] in 0.1 ml of CHCA solvent) and 0.6 μl of the quenched mixture were placed in a well. After drying, the samples were analyzed by MALDI-TOF MS using a reported procedure ([59], [60]). The kinetic data obtained thereafter were fitted using GraphPad Prism (GraphPad Software) ([59], [60]).

JMJD6^Δ344–403 [3] = details: read-out: 2OG Km^app; standard hydroxylation assay conditions, 2OG varied 0–150 μM, 37 °C, HEPES-KOH pH 8.0; mean ± S.D. (n = 3)
Method: as §1

JMJD6^FL [4] = details: read-out: 2OG Km^app; standard hydroxylation assay conditions, 2OG varied 0–150 μM, 37 °C, HEPES-KOH pH 8.0; mean ± S.D. (n = 3)
Method: as §1

JMJD6^Δ344–403 [5] = assay: CPMG-edited NMR titration, apparent binding constant of 2OG; parameters: species or system human; details: CPMG-edited 1H NMR (700 MHz), 20 μM 2OG, 200 μM Zn(II), Tris-d11 pH 7.5, titrated with EDTA-treated JMJD6; mean ± S.D. (n = 3); read-out: 2OG KD^app
Method: (§2) 20 μM 2OG and 200 μM Zn(II) were mixed in deuterated Tris-d11, pH 7.5, and the ^1H NMR signals for 2OG were recorded at 700 MHz ([39]). […] Typically, a 5–10% error was allowed in the curve-fitting process.
(§3) CPMG displacement experiments used a Bruker AV700 NMR machine, as reported previously ([39]). The PROJECT (Periodic Refocusing of J Evolution by Coherence Transfer)-CPMG sequence (90°x − (τ − 180°y − τ − 90°y − τ − 180°y − τ)n − acquisition) was applied ([56]). […] Water suppression was achieved by presaturation ([57], [58]).

JMJD6^FL [6] = assay: as above; parameters: species or system human; details: CPMG-edited 1H NMR (700 MHz), 20 μM 2OG, 200 μM Zn(II), Tris-d11 pH 7.5, titrated with EDTA-treated JMJD6; mean ± S.D. (n = 3); read-out: 2OG KD^app
Method: as §2, §3

JMJD6^Δ363–403 [7] = target: T1, JMJD6^Δ363–403; assay: as above; parameters: two more variants (aa 1–362, JMJD6^Δ363–403, and aa 1–343, JMJD6^Δ344–403); His6 (N); made in house; host or cells: Escherichia coli Rosetta2(DE3); details: CPMG-edited 1H NMR (700 MHz), 20 μM 2OG, 200 μM Zn(II), Tris-d11 pH 7.5, titrated with EDTA-treated JMJD6; mean ± S.D. (n = 3); read-out: 2OG KD^app
Method: as §2, §3

O=C(O)CCC(=O)C(=O)O [Peptide 2OG, 2-oxoglutarate]
Km (JMJD6^FL [1]): 39 µM | Km (JMJD6^Δ363–403 [2]): 24 ± 5.4 µM | Km (JMJD6^Δ344–403 [3]): 45 ± 10 µM | Km (JMJD6^FL [4]): 31 ± 5.3 µM | Kd (JMJD6^Δ344–403 [5]): 3500 ± 2100 nM | Kd (JMJD6^FL [6]): 2300 ± 1600 nM | Kd (JMJD6^Δ363–403 [7]): 3000 ± 4800 nM
